The structures appear in SMILES notation. Read-outs that look alike come from different tables or passages of the source.

The source of these data is US20050222204A1, “Opioid receptor antagonists” (priority 2002, published 2005).

The target in data set [1] is T1, human opioid receptors, Mu (MOR) (Homo sapiens, UniProt P35372).
T1 construct: expressed in transfected cells
In words: GTPγS functional antagonist assay (SPA), mu receptor, vs DAMGO. It counts as biochemical. The method, then:
(§1) An SPA-based GTPgS assay format was developed based on previous opioid (Emmerson et al., J. Pharm Exp Ther 278,1121,1996; Homg et al., Society for Neuroscience Abstracts, 434.6, 2000) and muscarinic (DeLapp et al., JPET 289, 946, 1999) assay formats. Membranes were resuspended in 20 mM HEPES, 100 mM NaCl, 5 mM MgCl2, 1 mM DTT, and 1 mM EDTA. […] of GTPγ[35S], compound, membrane suspension (20 microgram/well), and wheat germ agglutinin coated SPA beads (1 mg/well) were added to clear bottom 96 well assay plates. GDP ([…]) was added to the membrane solution prior to addition to the assay plates. Plates were sealed and incubated for four hours at room temperature then placed in a refrigerator overnight to allow the beads to settle. […] Plates were warmed to room temperature and counted in a Wallac Microbeta scintillation counter. For antagonist assays, specific agonists were added at the following concentrations: (MOR) DAMGO 1 micromolar, (DOR) DPDPE 30 nM, (KOR) U69593 300 nM. Kb's were determined by Cheng-Prusoff equation (Cheng and Prusoff, 22,3099 1973).

For data set [2], the target named is T2, human opioid receptors, Kappa (KOR) (Homo sapiens, UniProt P41145).
T2 construct: expressed in transfected cells
T2 sequence (P41145 whole entry): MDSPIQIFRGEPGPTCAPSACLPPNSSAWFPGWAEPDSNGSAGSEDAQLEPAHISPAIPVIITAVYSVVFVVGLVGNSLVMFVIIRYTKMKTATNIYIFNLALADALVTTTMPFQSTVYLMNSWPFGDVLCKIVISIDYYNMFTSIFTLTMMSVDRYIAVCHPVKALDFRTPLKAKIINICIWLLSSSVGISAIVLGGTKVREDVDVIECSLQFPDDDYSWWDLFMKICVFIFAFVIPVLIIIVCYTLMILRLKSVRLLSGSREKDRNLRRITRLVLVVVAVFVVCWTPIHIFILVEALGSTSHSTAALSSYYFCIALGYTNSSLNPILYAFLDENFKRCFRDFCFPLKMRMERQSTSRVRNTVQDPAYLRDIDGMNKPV
In words: GTPγS functional antagonist assay (SPA), kappa receptor, vs U69593. It counts as biochemical. Here is the method: as §1

Data set [3] has as its target T3, human opioid receptors, Delta (DOR) (Homo sapiens, UniProt P41143).
T3 construct: expressed in transfected cells
In words: GTPγS functional antagonist assay (SPA), delta receptor, vs DPDPE. It counts as biochemical. Here is the method: as §1

Data set [4] in a line: Bioavailability in rat (Table 2). Conditions: in vivo, read-out: Metabolis Rat (bioavailability).
Data set [5] has as its target T4, human Cytochrome 2D6 (CYP2D6) (Homo sapiens, UniProt P10635).
T4 construct: from tissue; host or cells: human liver microsomes
In words: Assay for inhibition of CYP2D6 activity (human liver microsomes, bufuralol substrate). Type of data set: in vitro ADME. Here is the method:
The reduced potential for inhibition of cytochrome P450 was discovered using a standard assay that monitors the compound's ability to inhibit Cyp2D6 a member of the cytochrome P450 family of enzymes.
Assay for Inhibition of CYP2D6 Activity
The inhibition of human Cytochrome 2D6 (CYP2D6) activity was studied using a validated high through-put screening assay. A 3 uL aliquot of an 8 mM stock solution of compound was delivered to 397 uL of pH 7.4 (50 mM) phosphate buffer resulting in an initial concentration of 60 uM. The compound dose solutions were prepared by serial dilutions to produce concentrations of […]. A 6 mM NaDPH stock solution was prepared by addition of 100 mg of NaDPH to 20 mL of pH 7.4 buffer. A 600 uL aliquot of Human liver Microsomes (HLM-20.0 mg/ml) was added to 20 ml of pH 7.4 phosphate buffer to produce a 0.6 mg/ml solution of HLM. To the HLM mixture was added 120 uL of a 10 mM bufurolol solution (CYP2D6 substrate) producing a final bufuralol concentration of 60 uM. To each assay plate was added 100 uL of the compound dose solutions, 25 uL NaDPH and 25 uL HLM/bufurolol solution. Samples were incubated at 37° C. for 10 minutes and the reaction was quenched with 25 uL of a 2% perchloric acid solution, followed by centrifugation at 3200 rpm for 30 min. The resulting supernatant was assayed for bufurolol concentrations using a Turbo Ion Spray API 150EX MS method. The calculated IC50 value represents the compound concentration that results in a 50% reduction in burfurolol consumption. Table 3 below provides a comparative data for inhibition of CyP2D6.
A general note: Microsomes from liver hold many membrane-bound enzymes, among them those of drug oxidation.

In another data set the test system is male Long-Evans rats. The data set is described as follows: Antiorexigenic effect: food consumption in fasted rats. It counts as in vivo, rat. Conditions: oral 3 mg/kg; rats fasted 18 hours; over 1 hour, 2 hour and 4 hour periods; vs untreated control. Here is the method:
Compounds were tested for effects on food consumption in male Long-Evans rats which had been fasted for 18 hours prior to testing. The weight of food consumed was measured for groups of 6 rats treated with test substance and compared to the food consumed by an untreated control group of 6 animals.

T1 sequence (P35372 whole entry): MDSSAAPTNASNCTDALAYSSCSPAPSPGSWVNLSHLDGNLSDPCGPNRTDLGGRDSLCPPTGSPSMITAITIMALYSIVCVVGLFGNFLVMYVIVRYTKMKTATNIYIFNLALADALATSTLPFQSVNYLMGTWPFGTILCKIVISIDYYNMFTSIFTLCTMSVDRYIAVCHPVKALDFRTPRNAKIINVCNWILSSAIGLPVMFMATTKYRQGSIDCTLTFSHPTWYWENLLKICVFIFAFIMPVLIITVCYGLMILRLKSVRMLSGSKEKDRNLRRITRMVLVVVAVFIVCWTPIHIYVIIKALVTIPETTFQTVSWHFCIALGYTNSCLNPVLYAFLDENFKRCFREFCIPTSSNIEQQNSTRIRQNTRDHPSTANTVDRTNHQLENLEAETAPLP
T4 sequence (P10635 whole entry): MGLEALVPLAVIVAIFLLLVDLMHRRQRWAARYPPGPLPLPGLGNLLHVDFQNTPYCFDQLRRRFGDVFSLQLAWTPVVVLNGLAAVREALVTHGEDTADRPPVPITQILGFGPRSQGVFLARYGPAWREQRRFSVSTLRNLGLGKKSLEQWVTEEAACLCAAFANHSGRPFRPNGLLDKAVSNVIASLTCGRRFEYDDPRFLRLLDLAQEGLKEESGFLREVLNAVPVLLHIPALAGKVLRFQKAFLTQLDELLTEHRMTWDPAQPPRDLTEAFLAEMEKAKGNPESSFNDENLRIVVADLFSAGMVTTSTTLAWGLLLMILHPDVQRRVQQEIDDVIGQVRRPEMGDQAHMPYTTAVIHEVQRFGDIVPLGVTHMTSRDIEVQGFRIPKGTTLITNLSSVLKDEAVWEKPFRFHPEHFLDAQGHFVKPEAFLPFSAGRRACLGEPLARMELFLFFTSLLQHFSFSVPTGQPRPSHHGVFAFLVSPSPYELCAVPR
T3 sequence (P41143 whole entry): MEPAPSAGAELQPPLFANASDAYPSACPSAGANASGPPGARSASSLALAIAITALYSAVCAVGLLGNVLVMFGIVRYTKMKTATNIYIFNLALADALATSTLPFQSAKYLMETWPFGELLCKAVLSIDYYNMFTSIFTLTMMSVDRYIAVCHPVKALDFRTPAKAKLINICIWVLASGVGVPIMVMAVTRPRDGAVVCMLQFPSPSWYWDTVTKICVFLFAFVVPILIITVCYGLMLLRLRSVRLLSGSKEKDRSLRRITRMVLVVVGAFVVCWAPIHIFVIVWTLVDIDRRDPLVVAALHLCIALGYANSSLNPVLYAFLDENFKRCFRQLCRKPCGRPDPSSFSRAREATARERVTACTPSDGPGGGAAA

Take `C[C@H]1CN(CC[C@H](O)C2CCCCC2)CC[C@@]1(C)c1cccc(C(N)=O)c1` (stereo in doubt) [(I), 3-[1-(3-Cyclohexyl-3-hydroxy-propyl)-3,4-dimethyl-piperidin-4-yl]-benzamide]: the figures for the Kb in data set [1], in data set [2] and in data set [3] were 0.12 nM, 1.93 nM and 2.81 nM, respectively. In addition, the “fold more potent than the compound of formula (II) in GTP-γ-S functional antagonist assay” value in data set [1] (versus compound (II) of Table 1, mu, kappa, delta) is reported as “at least 2 fold”. For the same molecule, the bioavailability in data set [4] came to 32%. In data set [5] (human liver microsomes, bufuralol substrate, 37° C., 10 minutes), the IC50 is 39000 nM. In data set [5] (versus compound (III) of Table 3), the “times less likely to inhibit the cytochrome P450 enzyme system compared to compound (III)” value is listed as “over 4 times”. In addition, the “times less likely to cause inhibition of the cytochrome P450 enzyme compared to compound (II)” value in data set [5] (versus prior clinical trial candidate compound (II) of Table 3) is given as roughly 16 times. The “inhibition of cumulative food consumed” value in the data set with male Long-Evans rats is reported as “statistically significant inhibition”.
Turning to `CCCCCCN1CC[C@@](C)(c2cccc(C(N)=O)c2)[C@@H](C)C1` [(II), reference compound], the Kb in data set [1] stood at 0.31 nM; in data set [2] it was 4.51 nM; in data set [3], 8.72 nM.
As to `C[C@H]1CN(CC[C@H](O)C2CCCCC2)CC[C@@]1(C)c1cccc(O)c1` [(III)], the Kb in data set [3] (read-out: In Vitro GTPγ-S human opioid receptors Delta (Kb)) came to 1.19 nM.

The bioavailability is the share of a dose that reaches the circulation, judged against a reference dose that is usually intravenous. In general, IC50 refers to the concentration needed to halve the response being measured. Lower therefore signals higher potency.
